Data reported in US8058427B2, “Coumarin compounds and their use for treating cancer” (National Health Research Institutes, priority 2008, dated 2011).

System: Human cervical carcinoma KB cells
Assay: Growth inhibition assay, KB cells (MTS)
Type: cell-based
Details: 72 h, read-out: IC50 (concentration causing 50% cell growth inhibition)
Protocol: Anticancer activities of the compounds of this invention were evaluated using a growth inhibition assay described in Kuo et al., Cancer Res. 2004, 64(13), 4621-4628.
Human cervical carcinoma KB cells were maintained in plastic dishes in DMEM medium supplemented with 10% fetal bovine serum. For in vitro treatment, tumor cells were seeded in […] of culture medium/well in 96-well plates to a final cell density of 6×10^3 cell/mL and incubated in a CO2 incubator at 37° C. for 24 h. The cells were treated with at least five different concentrations of a test compound, and incubated in a CO2 incubator at 37° C. for 72 h. The number of viable cells was estimated using MTS assay and absorbance was measured at 490 nm. For each test compound, dose-response curves were measured with at least five different drug concentrations, and the concentration causing 50% cell growth inhibition (IC50) compared with the control was calculated.

SMILES | IC50
COc1ccc(C(=O)c2oc3ccc4c(C)cc(=O)oc4c3c2-c2ccc(Br)cc2)cc1 [Compound 214] | 1000 to 10000 nM
Cc1cc(=O)oc2c1ccc1oc(C(=O)c3ccc4ccccc4c3)c(-c3ccc(F)cc3)c12 [Compound 220] | 101 to 999 nM
COc1ccc(C(=O)c2oc3ccc4c(C)cc(=O)oc4c3c2-c2ccc(Cl)cc2)cc1 [Compound 223] | 1000 to 10000 nM
Cc1cc(=O)oc2c1ccc1oc(C(=O)c3ccccc3)c(-c3ccc(Cl)c(Cl)c3)c12 [Compound 224] | 101 to 999 nM
Cc1cc(=O)oc2c1ccc1oc(C(O)c3ccccc3)cc12 (centres unmarked) [Compound 226] | 101 to 999 nM
CCCCCCCCCCOc1cccc(C(=O)c2oc3ccc4c(C)cc(=O)oc4c3c2-c2ccccc2)c1 [Compound 244] | 101 to 999 nM
COc1ccc(-c2c(C(=O)c3ccccc3)oc3ccc4c(C)cc(=O)oc4c23)cc1 [Compound 248] | 101 to 999 nM
CCCOc1cccc(C(=O)c2oc3ccc4c(C)cc(=O)oc4c3c2-c2ccc(Br)cc2)c1 [Compound 253] | 101 to 999 nM
Cc1cc(=O)oc2c1ccc1oc(C(=O)c3ccc(N(C)C)cc3)c(-c3ccccc3)c12 [Compound 264] | 101 to 999 nM
Cc1cc(=O)oc2c1ccc1oc(C(=O)c3ccc(OCCN4CCOCC4)cc3)c(-c3ccccc3)c12 [Compound 265] | 1000 to 10000 nM

Continued, values first:

IC50 | SMILES
1000 to 10000 nM | Cc1ccc(C(=O)c2oc3ccc4c(C)cc(=O)oc4c3c2-c2ccc(Br)cc2)cc1 [Compound 212]
101 to 999 nM | Cc1cc(=O)oc2c1ccc1oc(C(=O)c3cccc(Cl)c3)c(-c3ccc(Br)cc3)c12 [Compound 217]
101 to 999 nM | COc1ccccc1C(=O)c1oc2ccc3c(C)cc(=O)oc3c2c1-c1ccc(Br)cc1 [Compound 219]
101 to 999 nM | Cc1cc(=O)oc2c1ccc1oc(C(=O)c3cc(F)ccc3F)c(-c3ccc(F)cc3)c12 [Compound 221]
101 to 999 nM | CCN(CCO)CCCOc1cccc(C(=O)c2oc3ccc4c(C)cc(=O)oc4c3c2-c2ccccc2)c1 [Compound 251]
101 to 999 nM | Cc1cc(=O)oc2c1ccc1oc(C(=O)c3cccs3)c(-c3ccc(Br)cc3)c12 [Compound 254]
1000 to 10000 nM | Cc1cc(=O)oc2c1ccc1oc(C(=O)c3ccc(OCCN(C)C)cc3)c(-c3ccccc3)c12 [Compound 266]
